Target: PIM1 (Homo sapiens (Human), UniProt P11309)
Assay: Pim kinase inhibition, PIM1 LC3K (Example 901)
Format: biochemical
Text: Determination of the Pim kinase activity of a Formula I compound is possible by a number of direct and indirect detection methods.

Chain of PIM1 (P11309 whole entry): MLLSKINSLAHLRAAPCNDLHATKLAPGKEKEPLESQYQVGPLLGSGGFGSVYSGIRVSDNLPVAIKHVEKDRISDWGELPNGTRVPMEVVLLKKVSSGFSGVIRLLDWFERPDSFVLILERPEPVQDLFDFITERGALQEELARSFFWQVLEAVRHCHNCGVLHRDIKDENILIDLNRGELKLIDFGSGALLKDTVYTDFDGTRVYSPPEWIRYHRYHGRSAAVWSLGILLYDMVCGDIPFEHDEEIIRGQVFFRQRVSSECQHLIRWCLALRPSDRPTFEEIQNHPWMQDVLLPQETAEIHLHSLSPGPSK

Ki | Structure (SMILES)
0.208 nM | Nc1sc(-c2c(F)cccc2F)nc1C(=O)Nc1cnn(CC(F)(F)F)c1N1CCCCC(N)C1 (centres unmarked) [Example 303, 5-Amino-2-(2,6-difluoro-phenyl)-thiazole-4-carboxylic acid [5-(3-amino-azepan-1-yl)-1-(2,2,2-trifluoro-ethyl)-1H-pyrazol-4-yl]-amide]
0.087 nM | Cc1ccc(F)c(-c2nc(C(=O)Nc3cnn(C4CC4)c3N3CCC(N)C(F)CC3)c(N)s2)c1 (centres unmarked) [Example 330, 5-amino-N-[5-(4-amino-5-fluoro-azepan-1-yl)-1-cyclopropyl-pyrazol-4-yl]-2-(2-fluoro-5-methyl-phenyl)thiazole-4-carboxamide]
0.295 nM | Cn1ncc(NC(=O)c2nc(-c3c(F)cccc3F)sc2N)c1N1CCC[C@H](NCC2(C)COC2)CC1 [Example 334, 5-amino-2-(2,6-difluorophenyl)-N-[1-methyl-5-[(4S)-4-[(3-methyloxetan-3-yl)methylamino]azepan-1-yl]pyrazol-4-yl]thiazole-4-carboxamide]
0.199 nM | Cn1ncc(NC(=O)c2nc(-c3c(F)cccc3F)sc2N)c1N1CCC[C@H](N(CCO)CCO)CC1 [Example 336, 5-amino-N-[5-[(4S)-4-[bis(2-hydroxyethyl)amino]azepan-1-yl]-1-methyl-pyrazol-4-yl]-2-(2,6-difluorophenyl)thiazole-4-carboxamide]
0.159 nM | Nc1sc(-c2cc(F)ccc2F)nc1C(=O)Nc1cnn(C2CC2)c1N1CCC(N)C(F)CC1 (centres unmarked) [Example 338, 5-amino-N-[5-(4-amino-5-fluoro-azepan-1-yl)-1-cyclopropyl-pyrazol-4-yl]-2-(2,5-difluorophenyl)thiazole-4-carboxamide]
0.226 nM | Nc1sc(-c2cc(F)ccc2F)nc1C(=O)Nc1cnn(C2CC2)c1N1CCC(N)C(F)CC1 (centres unmarked) [Example 339, 5-amino-N-[5-(4-amino-5-fluoro-azepan-1-yl)-1-cyclopropyl-pyrazol-4-yl]-2-(2,5-difluorophenyl)thiazole-4-carboxamide]
0.075 nM | Cn1ncc(NC(=O)c2nc(-c3c(F)cccc3F)sc2N)c1N1CCC[C@H](NCC2COC2)CC1 [Example 342, 5-amino-2-(2,6-difluorophenyl)-N-[1-methyl-5-[(4S)-4-(oxetan-3-ylmethylamino)azepan-1-yl]pyrazol-4-yl]thiazole-4-carboxamide]
0.962 nM | Cn1ncc(NC(=O)c2nc(-c3c(F)cccc3F)sc2N)c1N1CCC[C@H](N(CC2COC2)CC2COC2)CC1 [Example 343, 5-amino-N-[5-[(4S)-4-[bis(oxetan-3-ylmethyl)amino]azepan-1-yl]-1-methyl-pyrazol-4-yl]-2-(2,6-difluorophenyl)thiazole-4-carboxamide]
0.783 nM | Cn1ncc(NC(=O)c2nc(-c3c(F)cccc3F)sc2N)c1N1CCC2(CNC2)C1 [Example 359, 5-amino-N-[5-(2,6-diazaspiro[3.4]octan-6-yl)-1-methyl-pyrazol-4-yl]-2-(2,6-difluorophenyl)thiazole-4-carboxamide]
0.391 nM | Cn1ncc(NC(=O)c2nc(-c3c(F)cccc3F)sc2N)c1N1CCC2(CCNC2=O)CC1 [Example 360, 5-amino-2-(2,6-difluorophenyl)-N-[1-methyl-5-(1-oxo-2,8-diazaspiro[4.5]decan-8-yl)pyrazol-4-yl]thiazole-4-carboxamide]
0.25 nM | Cn1ncc(NC(=O)c2nc(-c3c(F)cccc3F)sc2N)c1N1CCCN(C2CNC2)CC1 [Example 362, 5-amino-N-[5-[4-(azetidin-3-yl)-1,4-diazepan-1-yl]-1-methyl-pyrazol-4-yl]-2-(2,6-difluorophenyl)thiazole-4-carboxamide]
0.247 nM | CCn1ncc(NC(=O)c2nc(-c3c(F)cccc3F)sc2N)c1N1CC[C@H](OC)[C@@H](N)CC1 [Example 364, 5-amino-N-(5-((4S,5S)-4-amino-5-methoxyazepan-1-yl)-1-ethyl-1H-pyrazol-4-yl)-2-(2,6-difluorophenyl)thiazole-4-carboxamide]
0.223 nM | CCn1ncc(NC(=O)c2nc(-c3c(F)cccc3F)sc2N)c1N1CC[C@H](N)[C@H](OC)CC1 [Example 376, 5-amino-N-(5-((4S,5R)-4-amino-5-methoxyazepan-1-yl)-1-ethyl-1H-pyrazol-4-yl)-2-(2,6-difluorophenyl)thiazole-4-carboxamide]
2.81 nM | Cn1ncc(NC(=O)c2nc(-c3c(F)cccc3F)sc2N)c1N1CCNCC(C#N)C1 (centres unmarked) [Example 382, 5-amino-N-[5-(6-cyano-1,4-diazepan-1-yl)-1-methyl-pyrazol-4-yl]-2-(2,6-difluorophenyl)thiazole-4-carboxamide]
0.613 nM | CC(=O)NC1(C)CCCN(c2c(NC(=O)c3nc(-c4ncccc4F)sc3N)cnn2C)CC1 (centres unmarked) [Example 384, N-[5-(4-acetamido-4-methyl-azepan-1-yl)-1-methyl-pyrazol-4-yl]-5-amino-2-(3-fluoro-2-pyridyl)thiazole-4-carboxamide]
0.103 nM | CO[C@@H]1CCN(c2c(NC(=O)c3nc(-c4c(F)cccc4F)sc3N)cnn2C2CC2)CC[C@@H]1N [Example 386, 5-amino-N-(5-((4S,5R)-4-amino-5-methoxyazepan-1-yl)-1-cyclopropyl-1H-pyrazol-4-yl)-2-(2,6-difluorophenyl)thiazole-4-carboxamide]

Ki | Structure (SMILES)
14 nM | Cn1ncc(NC(=O)c2nc(-c3cccc(O)n3)sc2N)c1N1CCC[C@H](N)CC1 [Example 393, 5-amino-N-[5-[(4S)-4-aminoazepan-1-yl]-1-methyl-pyrazol-4-yl]-2-(6-hydroxy-2-pyridyl)thiazole-4-carboxamide]
2.12 nM | Cn1ncc(NC(=O)c2nc(-c3ccnc(F)c3)sc2N)c1N1CCC[C@H](N)CC1 [Example 417, 5-amino-N-[5-[(4S)-4-aminoazepan-1-yl]-1-methyl-pyrazol-4-yl]-2-(2-fluoro-4-pyridyl)thiazole-4-carboxamide]
0.785 nM | Cn1cc(-c2nc(C(=O)Nc3cnn(C)c3N3CCC[C@H](N)CC3)c(N)s2)cn1 [Example 419, 5-amino-N-[5-[(4S)-4-aminoazepan-1-yl]-1-methyl-pyrazol-4-yl]-2-(1-methylpyrazol-4-yl)thiazole-4-carboxamide]
4.25 nM | Cn1ncc(NC(=O)c2nc(-c3cncc(F)c3)sc2N)c1N1CCC[C@H](N)CC1 [Example 420, 5-amino-N-[5-[(4S)-4-aminoazepan-1-yl]-1-methyl-pyrazol-4-yl]-2-(5-fluoro-3-pyridyl)thiazole-4-carboxamide]
4.37 nM | Cc1noc(C)c1-c1nc(C(=O)Nc2cnn(C)c2N2CCC[C@H](N)CC2)c(N)s1 [Example 421, 5-amino-N-[5-[(4S)-4-aminoazepan-1-yl]-1-methyl-pyrazol-4-yl]-2-(3,5-dimethylisoxazol-4-yl)thiazole-4-carboxamide]
3.7 nM | COc1nccc(C)c1-c1nc(C(=O)Nc2cnn(C)c2N2CCC[C@H](N)CC2)c(N)s1 [Example 427, 5-amino-N-[5-[(4S)-4-aminoazepan-1-yl]-1-methyl-pyrazol-4-yl]-2-(2-methoxy-4-methyl-3-pyridyl)thiazole-4-carboxamide]
1.17 nM | Cc1ncccc1-c1nc(C(=O)Nc2cnn(C)c2N2CC[C@@H](N)[C@H](F)CC2)c(N)s1 [Example 430, 5-amino-N-[5-[(4R,5R)-4-amino-5-fluoro-azepan-1-yl]-1-methyl-pyrazol-4-yl]-2-(2-methyl-3-pyridyl)thiazole-4-carboxamide]
1.04 nM | Cc1cc(-c2nc(C(=O)Nc3cnn(C)c3N3CC[C@@H](N)[C@H](F)CC3)c(N)s2)ccn1 [Example 431, 5-amino-N-[5-[(4R,5R)-4-amino-5-fluoro-azepan-1-yl]-1-methyl-pyrazol-4-yl]-2-(2-methyl-4-pyridyl)thiazole-4-carboxamide]
0.477 nM | Cc1nn(C)cc1-c1nc(C(=O)Nc2cnn(C)c2N2CC[C@@H](N)[C@H](F)CC2)c(N)s1 [Example 437, 5-amino-N-[5-[(4R,5R)-4-amino-5-fluoro-azepan-1-yl]-1-methyl-pyrazol-4-yl]-2-(1,3-dimethylpyrazol-4-yl)thiazole-4-carboxamide]
1.08 nM | Cn1ncc(NC(=O)c2nc(-c3cc(C#N)ccc3F)sc2N)c1N1CC[C@@H](N)[C@H](F)CC1 [Example 442, 5-amino-N-[5-[(4R,5R)-4-amino-5-fluoro-azepan-1-yl]-1-methyl-pyrazol-4-yl]-2-(5-cyano-2-fluoro-phenyl)thiazole-4-carboxamide]
2.54 nM | Cc1cc(-c2nc(C(=O)Nc3cnn(C)c3N3CC[C@@H](N)[C@H](F)CC3)c(N)s2)cc(C)n1 [Example 443, 5-amino-N-[5-[(4R,5R)-4-amino-5-fluoro-azepan-1-yl]-1-methyl-pyrazol-4-yl]-2-(2,6-dimethyl-4-pyridyl)thiazole-4-carboxamide]
35.4 nM | Cn1ncc(NC(=O)c2nc(-c3cncc(C#N)c3)sc2N)c1N1CC[C@@H](N)[C@H](F)CC1 [Example 444, 5-amino-N-[5-[(4R,5R)-4-amino-5-fluoro-azepan-1-yl]-1-methyl-pyrazol-4-yl]-2-(5-cyano-3-pyridyl)thiazole-4-carboxamide]
0.446 nM | Cc1cnc(C)c(-c2nc(C(=O)Nc3cnn(C)c3N3CC[C@@H](N)[C@H](F)CC3)c(N)s2)c1 [Example 445, 5-amino-N-[5-[(4R,5R)-4-amino-5-fluoro-azepan-1-yl]-1-methyl-pyrazol-4-yl]-2-(2,5-dimethyl-3-pyridyl)thiazole-4-carboxamide]
0.242 nM | Cn1ncc(NC(=O)c2nc(-c3c(F)cncc3F)sc2N)c1N1CC[C@H](N)[C@@H](F)CC1 [Example 471, 5-amino-N-[5-[(4S,5S)-4-amino-5-fluoro-azepan-1-yl]-1-methyl-pyrazol-4-yl]-2-(3,5-difluoro-4-pyridyl)thiazole-4-carboxamide]
0.425 nM | COC1(C)CC(N)CCN(c2c(NC(=O)c3nc(-c4c(F)cncc4F)sc3N)cnn2C)C1 (centres unmarked) [Example 474, 5-amino-N-[5-(5-amino-3-methoxy-3-methyl-azepan-1-yl)-1-methyl-pyrazol-4-yl]-2-(3,5-difluoro-4-pyridyl)thiazole-4-carboxamide]

Structure (SMILES) | Ki
COC1CCC2(c3c(NC(=O)c4nc(-c5ccccc5F)sc4N)cnn3C)CCC1N2 (centres unmarked) [Example 423, 5-amino-2-(2-fluorophenyl)-N-[5-(2-methoxy-8-azabicyclo[3.2.1]octan-5-yl)-1-methyl-pyrazol-4-yl]thiazole-4-carboxamide] | 0.362 nM

— patent US8614206B2 (Genentech, Inc., priority 2011, dated 2013)
